Laboratory results reported in paper PMC2605271 (Journal of clinical neuroscience : official journal of the …, 2008).
“Also recorded” adds a separate entry of the source.

What was measured:
[1] = target: T1, serotonin transporter (SERT) (Homo sapiens, UniProt P31645); test: cell-based
[2] = target: norepinephrine transporter (NET) (Homo sapiens, UniProt P23975); details: 10^−7 M to 10^−3 M, 30 minutes, HEK-hNET cells
[3] = target: T1, serotonin transporter (SERT)
NET protein expression = test: Immunoblotting of NET protein expression in HEK-hNET cells; type: cell-based, human; details: 10^−6 M, 24 hours

T1 sequence (P31645 whole entry): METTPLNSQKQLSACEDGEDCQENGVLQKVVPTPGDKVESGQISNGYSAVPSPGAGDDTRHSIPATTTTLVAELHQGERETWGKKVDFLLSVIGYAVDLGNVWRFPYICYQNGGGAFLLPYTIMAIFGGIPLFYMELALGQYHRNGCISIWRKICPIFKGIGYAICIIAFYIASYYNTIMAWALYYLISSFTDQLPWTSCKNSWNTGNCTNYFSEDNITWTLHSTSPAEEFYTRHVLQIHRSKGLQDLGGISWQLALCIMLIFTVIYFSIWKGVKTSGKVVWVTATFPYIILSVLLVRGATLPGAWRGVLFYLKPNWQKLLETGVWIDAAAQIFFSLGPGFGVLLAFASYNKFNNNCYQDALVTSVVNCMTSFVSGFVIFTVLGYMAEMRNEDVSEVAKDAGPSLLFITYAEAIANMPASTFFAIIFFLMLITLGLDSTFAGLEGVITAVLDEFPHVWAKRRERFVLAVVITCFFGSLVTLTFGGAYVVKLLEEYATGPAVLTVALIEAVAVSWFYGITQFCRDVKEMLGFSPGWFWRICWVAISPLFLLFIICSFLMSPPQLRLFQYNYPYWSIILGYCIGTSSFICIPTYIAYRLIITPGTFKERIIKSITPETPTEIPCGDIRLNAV
Sequence of norepinephrine transporter (NET) (P23975 whole entry): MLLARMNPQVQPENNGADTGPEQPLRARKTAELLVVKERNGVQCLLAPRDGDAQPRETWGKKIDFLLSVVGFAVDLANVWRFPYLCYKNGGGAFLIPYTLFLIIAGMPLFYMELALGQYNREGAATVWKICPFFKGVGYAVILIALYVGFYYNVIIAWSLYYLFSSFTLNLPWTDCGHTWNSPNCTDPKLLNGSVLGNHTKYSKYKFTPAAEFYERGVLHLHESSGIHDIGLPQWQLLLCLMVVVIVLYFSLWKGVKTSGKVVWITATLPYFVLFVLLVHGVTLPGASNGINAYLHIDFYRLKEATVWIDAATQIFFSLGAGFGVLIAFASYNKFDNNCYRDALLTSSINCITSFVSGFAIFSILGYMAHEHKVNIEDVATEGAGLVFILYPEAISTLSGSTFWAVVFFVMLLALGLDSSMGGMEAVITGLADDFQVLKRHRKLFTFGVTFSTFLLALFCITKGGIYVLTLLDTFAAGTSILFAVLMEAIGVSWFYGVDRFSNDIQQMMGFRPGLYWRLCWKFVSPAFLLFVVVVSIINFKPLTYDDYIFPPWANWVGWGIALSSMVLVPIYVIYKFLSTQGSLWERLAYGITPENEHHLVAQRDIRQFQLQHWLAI

| SMILES | EC50 [1] [mM] | Effect on NET function ([3H]-NE uptake) [2] | Effect on SERT function ([3H]-5-HT uptake) [3] | Change in NET protein expression in response to chronic desipramine treatment (NET protein expression) |
| --- | --- | --- | --- | --- |
| CCCC(C)C1(CC)C(=O)NC(=S)NC1=O (stereo not shown) [Thiopental, thiopental] | > 50 | failed to have any effect; also recorded: no effect; also recorded: No evidence of inhibition | failed to have any effect; also recorded: no effect | – |
| CNCCCN1c2ccccc2CCc2ccccc21 [desipramine] | – | – | – | no changes |
